Data published in publication PMC4835159 (Journal of Medicinal Chemistry, 2016).
≈ marks a conversion by molar mass, not a printed value. Where “and” joins values, the source holds several entries; their conditions need not be identical. Equal entries are not always repeated. Where two headings read alike, the source gives them in different places.

What was measured:
CYP121 [1] = target: T1, CYP121 (Mycobacterium tuberculosis, UniProt P9WPP7); type: binding
Mtb H37Rv = assay: Antimycobacterial activity assay (MIC90); type: cell-based, Mycobacterium tuberculosis; parameters: key to MIC90: “N” indicates that compounds did not produce any significant cell death within the tested concentration range; details: triplicate, 0–100 μM, 2 weeks
CYP121 [2] = target: T1, CYP121; assay: Single shot UV–vis absorbance assay (Soret band shift, competition with type II inhibitor) on CYP121; type: binding; details: for Δλmax (change in wavelength of the Soret band): CYP121 5 μM, vs 1% v/v DMSO-d6 alone (λmax = 416.5 nm), single shot; for shifts in the CYP121 optical spectrum: UV–vis spectroscopy
CYP121 [3] = target: T1, CYP121; assay: Native mass spectrometry of CYP121 with ligands; type: binding
[4] = Gibbs free energy of binding to CYP121 divided by number of heavy atoms (ΔG/HA)

T1 sequence (P9WPP7 whole entry): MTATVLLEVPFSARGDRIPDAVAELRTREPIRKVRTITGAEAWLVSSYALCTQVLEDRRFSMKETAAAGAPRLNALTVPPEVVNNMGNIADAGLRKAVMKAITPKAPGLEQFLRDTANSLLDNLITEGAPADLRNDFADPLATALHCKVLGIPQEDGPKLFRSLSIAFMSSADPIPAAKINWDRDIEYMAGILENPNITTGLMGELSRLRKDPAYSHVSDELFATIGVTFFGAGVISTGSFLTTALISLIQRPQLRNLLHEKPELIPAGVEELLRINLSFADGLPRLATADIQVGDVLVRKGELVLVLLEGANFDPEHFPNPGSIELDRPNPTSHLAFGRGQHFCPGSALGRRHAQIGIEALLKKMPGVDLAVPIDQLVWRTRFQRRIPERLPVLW

Structure (SMILES): Nc1[nH]nc(-c2cccc(O)c2)c1-c1ccc(O)cc1 [14b, 3-(5-Amino-4-(4-hydroxyphenyl)-1H-pyrazol-3-yl)phenol]
- LE (ligand efficiency) (CYP121 [1]; [4]): 0.29

Structure (SMILES): Nc1[nH]nc(-c2cccc(F)c2)c1-c1ccc(O)cc1 [14c, 4-(5-Amino-3-(3-fluorophenyl)-1H-pyrazol-4-yl)phenol]
- LE (ligand efficiency) (CYP121 [1]; [4]): 0.25
- MIC90 (Mtb H37Rv): N

Structure (SMILES): Nc1[nH]nc(-c2ccc(O)cc2O)c1-c1ccc(O)cc1 [14d, 4-(5-amino-4-(4-hydroxyphenyl)-1H-pyrazol-3-yl)benzene-1,3-diol]
- LE (ligand efficiency) (CYP121 [1]; [4]): 0.24

Structure (SMILES): Nc1[nH]ncc1-c1cccc(-c2cccnc2)c1 [18e, 4-(3-(Pyridin-3-yl)phenyl)-1H-pyrazol-5-amine]
- Δλmax (change in wavelength of the Soret band) (CYP121 [2]): 0 nm

Structure (SMILES): Nc1[nH]ncc1-c1cccc(-c2ccncc2)c1 [18f, 4-(3-(Pyridin-4-yl)phenyl)-1H-pyrazol-5-amine]
- Δλmax (change in wavelength of the Soret band) (CYP121 [2]): 1 nm

Structure (SMILES): Nc1[nH]ncc1-c1cccc(-c2ccc3[nH]ccc3c2)c1 [18g, 4-(3-(1H-Indol-5-yl)phenyl)-1H-pyrazol-5-amine]
- Δλmax (change in wavelength of the Soret band) (CYP121 [2]): 0 nm

Structure (SMILES): Nc1[nH]ncc1-c1cccc(-c2ccc3cc[nH]c3c2)c1 [18h, 4-(3-(1H-Indol-6-yl)phenyl)-1H-pyrazol-5-amine]
- Δλmax (change in wavelength of the Soret band) (CYP121 [2]): 0 nm

Structure (SMILES): Nc1[nH]ncc1-c1cccc(-c2cn[nH]c2)c1 [18i, 4-(3-(1H-Pyrazol-4-yl)phenyl)-1H-pyrazol-5-amine]
- Δλmax (change in wavelength of the Soret band) (CYP121 [2]): 0 nm

Structure (SMILES): Nc1cccc(-c2cccc(-c3cn[nH]c3N)c2)c1 [19a, 4-(3′-Amino-[1,1′-biphenyl]-3-yl)-1H-pyrazol-5-amine]
- LE (ligand efficiency) (CYP121 [1]): 0.35
- MIC90 (Mtb H37Rv): N
- Monomer (%) of CYP121 (CYP121 [3]; Protein-Ligand Ratio 1:0.5): 23%
- ligand binding stoichiometry, CYP121 Dimer (CYP121 [3]; Protein-Ligand Ratio 1:0.5): 0
- ligand binding stoichiometry, CYP121 Monomer (CYP121 [3]; Protein-Ligand Ratio 1:0.5): 0
- Monomer (%) of CYP121 (CYP121 [3]; Protein-Ligand Ratio 1:1): 28%
- ligand binding stoichiometry, CYP121 Dimer (CYP121 [3]; Protein-Ligand Ratio 1:1): 0
- ligand binding stoichiometry, CYP121 Monomer (CYP121 [3]; Protein-Ligand Ratio 1:1): 0
- Monomer (%) of CYP121 (CYP121 [3]; Protein-Ligand Ratio 1:25): 33%
- ligand binding stoichiometry, CYP121 Dimer (CYP121 [3]; Protein-Ligand Ratio 1:25): 2
- ligand binding stoichiometry, CYP121 Monomer (CYP121 [3]; Protein-Ligand Ratio 1:25): 1

Structure (SMILES): Nc1cccc(-c2cc(-c3cn[nH]c3N)ccc2OCc2ccccc2)c1 [19b, 4-(3′-Amino-6-(benzyloxy)-[1,1′-biphenyl]-3-yl)-1H-pyrazol-5-amine]
- LE (ligand efficiency) (CYP121 [1]; [4]): 0.23
- shifts in the CYP121 optical spectrum (CYP121 [2]): type II shifts

Structure (SMILES): COc1ccc(-c2cn[nH]c2N)cc1-c1cccc(N)c1 [19c, 4-(3′-Amino-6-methoxy-[1,1′-biphenyl]-3-yl)-1H-pyrazol-5-amine]
- LE (ligand efficiency) (CYP121 [1]; [4]): 0.27
- shifts in the CYP121 optical spectrum (CYP121 [2]): type II shifts

Structure (SMILES): COc1ccc(-c2n[nH]c(N)c2-c2cccc(-c3cccc(N)c3)c2)cc1 [24a, 4-(3′-Amino-[1,1′-biphenyl]-3-yl)-3-(4-methoxyphenyl)-1H-pyrazol-5-amine]
- LE (ligand efficiency) (CYP121 [1]; [4]): 0.38
- shifts in the CYP121 optical spectrum (CYP121 [2]): type II shifts
- MIC90 (Mtb H37Rv; Mycobacterium tuberculosis, 336 h, read-out: MIC90): 50 µM (≈ 17.8 µg/mL)
- Monomer (%) of CYP121 (CYP121 [3]; Protein-Ligand Ratio 1:0.5): 19%
- ligand binding stoichiometry, CYP121 Dimer (CYP121 [3]; Protein-Ligand Ratio 1:0.5): 1
- ligand binding stoichiometry, CYP121 Monomer (CYP121 [3]; Protein-Ligand Ratio 1:0.5): 0
- Monomer (%) of CYP121 (CYP121 [3]; Protein-Ligand Ratio 1:1): 16%
- ligand binding stoichiometry, CYP121 Dimer (CYP121 [3]; Protein-Ligand Ratio 1:1): 1
- ligand binding stoichiometry, CYP121 Monomer (CYP121 [3]; Protein-Ligand Ratio 1:1): 1
- Monomer (%) of CYP121 (CYP121 [3]; Protein-Ligand Ratio 1:25): 16%
- ligand binding stoichiometry, CYP121 Dimer (CYP121 [3]; Protein-Ligand Ratio 1:25): 2
- ligand binding stoichiometry, CYP121 Monomer (CYP121 [3]; Protein-Ligand Ratio 1:25): 1

Structure (SMILES): Oc1ccc(-c2n[nH]c(NCc3ccc(O)c(Br)c3)c2-c2ccc(O)cc2)cc1 [26b, 4,4′-(5-((3-Bromo-4-hydroxybenzyl)amino)-1H-pyrazole-3,4-diyl)diphenol]
- LE (ligand efficiency) (CYP121 [1]; [4]): 0.22

Structure (SMILES): Oc1ccc(-c2n[nH]c(NCc3ccsc3)c2-c2ccc(O)cc2)cc1 [26c, 4,4′-(5-((Thiophen-3-ylmethyl)amino)-1H-pyrazole-3,4-diyl)diphenol]
- LE (ligand efficiency) (CYP121 [1]; [4]): 0.25

Structure (SMILES): Oc1ccc(-c2n[nH]c(NCc3ccco3)c2-c2ccc(O)cc2)cc1 [26d, 4,4′-(5-((Furan-2-ylmethyl)amino)-1H-pyrazole-3,4-diyl)diphenol]
- LE (ligand efficiency) (CYP121 [1]; [4]): 0.24

Structure (SMILES): Oc1ccc(-c2n[nH]c(NCc3ccc4[nH]ccc4c3)c2-c2ccc(O)cc2)cc1 [26e, 4,4′-(5-(((1H-Indol-5-yl)methyl)amino)-1H-pyrazole-3,4-diyl)diphenol]
- LE (ligand efficiency) (CYP121 [1]; [4]): 0.19

Structure (SMILES): Oc1ccc(-c2n[nH]c(NCc3cccc4[nH]ncc34)c2-c2ccc(O)cc2)cc1 [26f, 4,4′-(5-(((1H-Indazol-4-yl)methyl)amino)-1H-pyrazole-3,4-diyl)diphenol]
- LE (ligand efficiency) (CYP121 [1]; [4]): 0.20

Structure (SMILES): Oc1ccc(-c2n[nH]c(NCc3ccncc3)c2-c2ccc(O)cc2)cc1 [26g, 4,4′-(5-((Pyridin-4-ylmethyl)amino)-1H-pyrazole-3,4-diyl)diphenol]
- LE (ligand efficiency) (CYP121 [1]; [4]): 0.18

Structure (SMILES): Oc1ccc(-c2n[nH]c(NCc3c[nH]cn3)c2-c2ccc(O)cc2)cc1 [26h, 4,4′-(5-(((1H-Imidazol-4-yl)methyl)amino)-1H-pyrazole-3,4-diyl)diphenol]
- LE (ligand efficiency) (CYP121 [1]; [4]): 0.19
- Δλmax (type II shift) (CYP121 [2]; ligand 100 μM, CYP121): +1.5 nm

Structure (SMILES): O=C(Nc1[nH]nc(-c2ccc(O)cc2)c1-c1ccc(O)cc1)c1ccccc1 [29a, N-(3,4-Bis(4-hydroxyphenyl)-1H-pyrazol-5-yl)benzamide]
- LE (ligand efficiency) (CYP121 [1]; [4]): 0.18

Structure (SMILES): O=C(Nc1[nH]nc(-c2ccc(O)cc2)c1-c1ccc(O)cc1)c1ccc(O)cc1 [29b, N-(3,4-Bis(4-hydroxyphenyl)-1H-pyrazol-5-yl)-4-hydroxybenzamide]
- LE (ligand efficiency) (CYP121 [1]; [4]): 0.19

Structure (SMILES): O=C(Nc1[nH]nc(-c2ccc(O)cc2)c1-c1ccc(O)cc1)c1ccncc1 [29c, N-(3,4-Bis(4-hydroxyphenyl)-1H-pyrazol-5-yl)isonicotinamide]
- LE (ligand efficiency) (CYP121 [1]; [4]): 0.16
- MIC90 (Mtb H37Rv): N

Structure (SMILES): CO[C@H]1/C=C/O[C@@]2(C)Oc3c(C)c(O)c4c(O)c(c(/C=N/N5CCN(C)CC5)c(O)c4c3C2=O)NC(=O)/C(C)=C\C=C\[C@H](C)[C@H](O)[C@@H](C)[C@@H](O)[C@@H](C)[C@H](OC(C)=O)[C@@H]1C [Rifampicin, reference compound]
- MIC (Mtb H37Rv; Mycobacterium tuberculosis, 336 h): 0.75 µM (≈ 0.617 µg/mL)

Structure (SMILES): Oc1ccc(Nc2[nH]nc(-c3ccc(O)cc3)c2-c2ccc(O)cc2)cc1 [compound 2, 4,4'-(5-((4-hydroxyphenyl)amino)-1H-pyrazole-3,4-diyl)diphenol]
- LE (ligand efficiency) (CYP121 [1]; [4]): 0.24 and 0.23

Structure (SMILES): Nc1cc(-c2ccc(O)cc2)n[nH]1 [compound 3, 4-(5-Amino-1H-pyrazol-3-yl)phenol]
- LE (ligand efficiency) (CYP121 [1]; [4]): 0.30

Structure (SMILES): Nc1[nH]ncc1-c1ccc(O)cc1 [compound 4, 4-(5-amino-1H-pyrazol-4-yl)phenol]
- LE (ligand efficiency) (CYP121 [1]; [4]): 0.29

Structure (SMILES): Oc1ccc(Nc2cc(-c3ccc(O)cc3)n[nH]2)cc1 [compound 6, 4-((3-(4-Hydroxyphenyl)-1H-pyrazol-5-yl)amino)phenol]
- LE (ligand efficiency) (CYP121 [1]; [4]): 0.34
- Monomer (%) of CYP121 (CYP121 [3]; Protein-Ligand Ratio 1:0.5): 11%
- ligand binding stoichiometry, CYP121 Dimer (CYP121 [3]; Protein-Ligand Ratio 1:0.5): 0
- ligand binding stoichiometry, CYP121 Monomer (CYP121 [3]; Protein-Ligand Ratio 1:0.5): 0
- Monomer (%) of CYP121 (CYP121 [3]; Protein-Ligand Ratio 1:1): 26%
- ligand binding stoichiometry, CYP121 Dimer (CYP121 [3]; Protein-Ligand Ratio 1:1): 0
- ligand binding stoichiometry, CYP121 Monomer (CYP121 [3]; Protein-Ligand Ratio 1:1): 0
- Monomer (%) of CYP121 (CYP121 [3]; Protein-Ligand Ratio 1:25): 12%
- ligand binding stoichiometry, CYP121 Dimer (CYP121 [3]; Protein-Ligand Ratio 1:25): 1
- ligand binding stoichiometry, CYP121 Monomer (CYP121 [3]; Protein-Ligand Ratio 1:25): 1

Structure (SMILES): NC(=O)c1cc(Cl)ccc1N [compound 7]
- LE (ligand efficiency) (CYP121 [1]; [4]): 0.30

Structure (SMILES): Nc1cccc(Cn2cncn2)c1 [compound 8]
- LE (ligand efficiency) (CYP121 [1]; [4]): 0.29

Structure (SMILES): Cc1ccc2cc(N)ccc2n1 [compound 9]
- LE (ligand efficiency) (CYP121 [1]; [4]): 0.39
